Laboratory results taken from patent US20230123334A1, “AMINO LIPID COMPOUND, PREPARATION METHOD THEREFOR, AND APPLICATION THEREOF” (SHENZHEN SHENXIN BIOTECHNOLOGY CO., LTD., priority 2020, published 2023).

system: HEK293 cells; assay: Preliminary screening as mRNA vectors, EGFP mRNA transfection of HEK293 cells; assay type: cell-based; details: EGFP mRNA 50 ng per well, 96-well plates; percentage of GFP fluorescent cells relative to total number of cells (Hoechst)
Outline: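 Each well of HEK293 cells received 50 ng of EGFP mRNA. Efficiency was expressed as percent GFP-expressing cells over Hoechst-defined total cell number.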

Row | Compound | Absolute mRNA transfection efficiency in HEK293 cells [%]
1 | CCCCCCCCCCCCCNc1nc(NCCCN(C)C)nc(SCCCCCCC)n1 [Compound D6S7N13] | 44.9
2 | CCCCCCCCCCCCN(CCCCCCCCCCCC)c1nc(NCCN2CCCC2)nc(SCCCCCC)n1 [D3S6^2N12] | 0.4
3 | CCCCCCCCCCCSc1nc(NCCCCCCCCC)nc(NCCN2CCOCC2)n1 [Compound D2S11N9] | 2.5
4 | CCCCCCCCCCCCCCSc1nc(NCCCCCCC)nc(NCCCN2CCOCC2)n1 [Compound D8S14N7] | 3.1
5 | CCCCCCCCCCSc1nc(NCCN2CCN(C)CC2)nc(SCCCCCC)n1 [Compound D5S6S10] | 10.1
6 | CCCCCCCCCCCCN(CCCCCCCCCCCC)c1nc(NCCN(C)C)nc(SCCCCCCCCCCC)n1 [D1S11^2N12] | 0.0
7 | CCCCCCCCCSc1nc(NCCN2CCCC2)nc(SCCCCCCCC)n1 [Compound D3S8S9] | 11.6
8 | CCCCCCCCCCCCSc1nc(NCCN(C)C)nc(SCCCCCCCC)n1 [Compound D1S8S12] | 1.4
9 | CCCCCCCCCSc1nc(NCCCCCCCC)nc(NCCCN2CCN(C)CC2)n1 [Compound D9S9N8] | 9.2
10 | CCCCCCCCCCCNc1nc(NCCN2CCCCC2)nc(SCCCCCCCCCC)n1 [Compound D4S10N11] | 0.8
11 | CCCCCCCCCCCCCCCCCCNc1nc(NCCCN(C)C)nc(SCCCCCC)n1 [Compound D6S6N18] | 60.1
12 | CCCCCCCCNc1nc(NCCN(C)C)nc(SCCCCCCC)n1 [Compound D1S7N8] | 2.0
13 | CCCCCCCCCCCCCCCCCCNc1nc(NCCN(CC)CC)nc(SCCCCCCCCC)n1 [Compound D7S9N18] | 21.1
14 | CCCCCCCCCCCCCCCCCCSc1nc(NCCCCCCCC)nc(NCCN(CC)CC)n1 [Compound D7S18N8] | 9.8
15 | CCCCCCCCCCCCCCSc1nc(NCCCN2CCN(C)CC2)nc(N(CCCCCCCCCCCC)CCCCCCCCCCCC)n1 [D9S14^2N12] | 0.1
16 | CCCCCCCCCCCCCCCCCCNc1nc(NCCN2CCCCC2)nc(SCCCCCCCCC)n1 [Compound D4S9N18] | 8.3
17 | CCCCCCCCNc1nc(NCCN2CCOCC2)nc(SCCCCCCCC)n1 [Compound D2S8N8] | 0.9
18 | CCCCCCCCCCCCCCCCNc1nc(NCCCN2CCOCC2)nc(SCCCCCCCCCC)n1 [Compound D8S10N16] | 0.2
19 | CCCCCCCCCCCCCCCSc1nc(NCCCCCCCCCCC)nc(NCCCN(C)C)n1 [Compound D6S15N11] | 7.8
20 | CCCCCCCCCCCCCCCCCCSc1nc(NCCCCCCCCCCCCCCC)nc(NCCN(CC)CC)n1 [Compound D7S18N15] | 0.3
21 | CCCCCCCCNc1nc(NCCN2CCN(C)CC2)nc(SCCCCCC)n1 [Compound D5S6N8] | 5.9
22 | CCCCCCCCCCCCNc1nc(NCCN(CC)CC)nc(SCCCCCCCCCCCC)n1 [Compound D7S12N12] | 3.7
23 | CCCCCCCCCNc1nc(NCCCN2CCOCC2)nc(SCCCCCC)n1 [Compound D8S6N9] | 1.2

Row | Compound | Absolute mRNA transfection efficiency in HEK293 cells [%]
24 | CCCCCCCCCCCCCCCNc1nc(NCCN2CCCC2)nc(SCCCCCCCCCC)n1 [Compound D3S10N15] | 57.6
25 | CCCCCCCCCCCCCCCCNc1nc(NCCN(C)C)nc(SCCCCCCCCCCC)n1 [Compound D1S11N16] | 13.0
26 | CCCCCCCCCCCCCCCCSc1nc(NCCCCCCC)nc(NCC2CCN(C)CC2)n1 [Compound D10S16N7] | 29.6
27 | CCCCCCCCCCCCSc1nc(NCCN2CCCC2)nc(SCCCCCC)n1 [Compound D3S6S12] | 1.0
28 | CCCCCCCCCCCCCCCNc1nc(NCCCN2CCN(C)CC2)nc(SCCCCCCCCCCC)n1 [Compound D9S11N15] | 15.7
29 | CCCCCCCCCCCSc1nc(NCC2CCN(C)CC2)nc(SCCCCCC)n1 [Compound D10S6S11] | 15.9
30 | CCCCCCCCCCCCCCCCSc1nc(NCCCCCCCC)nc(NCC2CCN(C)CC2)n1 [Compound D10S16N8] | 70.4
31 | CCCCCCCSc1nc(NCCCCCC)nc(NCCN(C)C)n1 [Compound D1S7N6] | 5.1
32 | CCCCCCCCCCCCNc1nc(NCCCN(C)C)nc(SCCCCCCCCC)n1 [Compound D6S9N12] | 39.3
33 | CCCCCCCCCCCCCCCSc1nc(NCCN2CCN(C)CC2)nc(SCCCCCCC)n1 [Compound D5S7S15] | 58.7
34 | CCCCCCCCCCCCCCCSc1nc(NCCN2CCCC2)nc(SCCCCCC)n1 [Compound D3S6S15] | 12.0
35 | CCCCCCCCCCCCCCCSc1nc(NCCCCCCCC)nc(NCCCN(C)C)n1 [Compound D6S15N8] | 6.9
36 | CCCCCCCCCCCNc1nc(NCCN2CCCC2)nc(SCCCCCCC)n1 [Compound D3S7N11] | 9.6
37 | CCCCCCCCCCCCCCCSc1nc(NCCCCCCCCC)nc(NCCN2CCCCC2)n1 [Compound D4S15N9] | 1.8
38 | CCCCCCCNc1nc(NCCCN2CCOCC2)nc(SCCCCCCC)n1 [Compound D8S7N7] | 1.4
39 | CCCCCCCCCCCCNc1nc(NCCN2CCCCC2)nc(SCCCCCCCCCCC)n1 [Compound D4S11N12] | 8.9
40 | CCCCCCCCCCCCSc1nc(NCCCCCCC)nc(NCCCN(C)C)n1 [Compound D6S12N7] | 13.0
41 | CCCCCCCCCCCCCCCCNc1nc(NCC2CCN(C)CC2)nc(SCCCCCCCCC)n1 [Compound D10S9N16] | 30.2
42 | CCCCCCCCCCCCCCCCNc1nc(NCCCN2CCN(C)CC2)nc(SCCCCCCCCCCCC)n1 [Compound D9S12N16] | 1.2
43 | CCCCCCCCCCCCNc1nc(NCCN2CCCCC2)nc(SCCCCCCC)n1 [Compound D4S7N12] | 0.6
44 | CCCCCCCCCCCCCCCCNc1nc(NCCCN2CCOCC2)nc(SCCCCCCC)n1 [Compound D8S7N16] | 1.2
45 | CCCCCCCCCCCCCCCCNc1nc(NCC2CCN(C)CC2)nc(SCCCCCCC)n1 [Compound D10S7N16] | 44.3
46 | CCCCCCCCNc1nc(NCCN(CC)CC)nc(SCCCCCCC)n1 [Compound D7S7N8] | 3.5

Row | Compound | Absolute mRNA transfection efficiency in HEK293 cells [%]
47 | CCCCCCCCCNc1nc(NCCCN(C)C)nc(SCCCCCC)n1 [Compound D6S6N9] | 0.3
48 | CCCCCCCCCCCCNc1nc(NCCCN(C)C)nc(SCCCCCCC)n1 [Compound D6S7N12] | 12.5
49 | CCCCCCCCCNc1nc(NCCN2CCCCC2)nc(SCCCCCCCC)n1 [Compound D4S8N9] | 2.3
50 | CCCCCCCCCCCCCCCCCCSc1nc(NCCN(CC)CC)nc(SCCCCCCC)n1 [Compound D7S7S18] | 7.1
51 | CCCCCCCCCCCNc1nc(NCCN(CC)CC)nc(SCCCCCCCC)n1 [Compound D7S8N11] | 9.0
52 | CCCCCCCCCCCCCCSc1nc(NCCCCCCCCCCC)nc(NCCN(CC)CC)n1 [Compound D7S14N11] | 17.0
53 | CCCCCCCCCCSc1nc(NCCCCCC)nc(NCCCN2CCN(C)CC2)n1 [Compound D9S10N6] | 1.1
54 | CCCCCCCCCCCCNc1nc(NCCN2CCN(C)CC2)nc(SCCCCCCCCCC)n1 [Compound D5S10N12] | 3.6
55 | CCCCCCCCCCCCCCCNc1nc(NCCCN2CCOCC2)nc(SCCCCCCCCCCCC)n1 [Compound D8S12N15] | 0.0
56 | CCCCCCCCCCSc1nc(NCCCN(C)C)nc(SCCCCCCCC)n1 [Compound D6S8S10] | 70.2
57 | CCCCCCCCCCCCCCCNc1nc(NCCCN2CCOCC2)nc(SCCCCCCCCCCCCCCC)n1 [Compound D8S15N15] | 0.1
58 | CCCCCCCCCCCCCCSc1nc(NCCCN2CCOCC2)nc(N(CCCCCCCCCCCC)CCCCCCCCCCCC)n1 [D8S14^2N12] | 0.1
59 | CCCCCCCCCCSc1nc(NCCN2CCOCC2)nc(SCCCCCCCC)n1 [Compound D2S8S10] | 38.8
60 | CCCCCCCCCCCSc1nc(NCCCN2CCN(C)CC2)nc(SCCCCCCCC)n1 [Compound D9S8S11] | 97.6
61 | CCCCCCCCCCCCCCSc1nc(NCCCCCCCCCCC)nc(NCCN2CCN(C)CC2)n1 [Compound D5S14N11] | 19.8
62 | CCCCCCCCCCCCCCCNc1nc(NCC2CCN(C)CC2)nc(SCCCCCCCCCCC)n1 [Compound D10S11N15] | 18.6
63 | CCCCCCCCCCCCSc1nc(NCCCCCCCCCCC)nc(NCCCN(C)C)n1 [Compound D6S12N11] | 14.0
64 | CCCCCCCCCCCCCCCCCCSc1nc(NCCCCCCCCCCCCCCC)nc(NCCN2CCCC2)n1 [Compound D3S18N15] | 0.1
65 | CCCCCCCCCCCCSc1nc(NCCCCCCCC)nc(NCCCN2CCN(C)CC2)n1 [Compound D9S12N8] | 20.1
66 | CCCCCCCCCSc1nc(NCCN2CCN(C)CC2)nc(SCCCCCC)n1 [Compound D5S6S9] | 8.3
67 | CCCCCCCCCCCCCCCCNc1nc(NCCCN2CCN(C)CC2)nc(SCCCCCCCCC)n1 [Compound D9S9N16] | 16.7
